The structures appear in SMILES notation. Like-named read-outs stand apart in the source and are kept apart here.

Experiment [1] has as its system ZIKV PAN2016 strain. Kind of experiment: Combinatorial effects of gossypol with other Z-medicaments, ZIKV PAN2016. Conditions: for Fold of Enhancement / CI (combination index): ZIKV PAN2016; for Fold of Enhancement: IC50 alone / in mixture; for CI (combination index): named compound in combination with gossypol. In kind it is cell-based, Zika virus (ZIKV). On the procedure: The unbound viruses and Z-medicaments were removed, and the cells were cultured at 37° C. for 4-5 days, followed by staining with 0.5% crystal violet. The Z-medicaments without combinations were used as controls. The IC50 of the Z-medicaments was calculated as described above.
The Z-medicaments were then analyzed for synergistic effects based on the combination index (CI) and IC50 values using the CalcuSyn program. Specifically, CI values <1 and >1 indicate synergy and antagonism, respectively. Synergy was further identified as five different categories: CI values <0.1, 0.1-0.3, 0.3-0.7, 0.7-0.85, and 0.85-0.90 indicate very strong synergism, strong synergism, synergism, moderate synergism, and slight synergism, respectively. Fold enhancement of anti-ZIKV potency is expressed as the ratio of molar concentrations of the Z-medicaments tested alone and in the mixture.

The target in experiment [2] is T1, ZIKV NS2B-NS3 protease (Zika virus, UniProt Q32ZE1).
T1 construct: 49-97) and NS2 protein (residues 1-185) through a covalent; made in house; host or cells: E. coli
Kind of experiment: ELISA binding to ZIKV NS2B-NS3 protease. The procedure: Binding of compounds (NPs) to ZIKV full-length E (FIG. 3A), EDIII (FIG. 3B), and NS2B-NS3 (FIG. 3C) proteins, was detected by ELISA. The percent binding was reported in the presence or absence of serially diluted NPs using the formula (1-[E/EDIII-NP]/[E/EDIII])×100 (for E/EDIII binding) or (1-[NS2B-NS3-NP]/[NS2B-NS3])×100 (for NSEB-NS3 binding). […] The concentrations of ZIKV EDIII and mAbs were 1.5 and 0.5 μg/ml, respectively. […] The concentrations of substrate (Bz-Nle-Lys-Lys-Arg-AMC) and ZIKV NS2B-NS3 protein were 4 μM and 1 μg/ml, respectively. The percent inhibition of protease activity was calculated in the presence or absence of serially diluted compounds using the formula (1-[NS2B-NS3-substrate-NP]/[NS2B-NS3-substrate])×100. The IC50 values were calculated based on the percent inhibition. The data are expressed as mean±s.e.m. (n=4).
The data are expressed as mean±s.e.m. (n=4), and DMSO was used as negative control. Surface plasmon resonance (SPR) analysis of the binding between ST087010 and ZIKV EDIII (FIG. 6D) or NS2B-NS3 (FIG. 6E) protein was performed. Binding affinity was shown as KD (equilibrium dissociation constant).
The binding between the Z-medicament and ZIKV full-length E protein, EDIII protein (E residues 298-409 fused with a C-terminal human Fc), or NS2B-NS3 protease was carried out by ELISA. Briefly, ELISA plates were pre-coated with the proteins described above at 4° C. overnight, and blocked with 2% fat-free milk at 37° C. for 2 h. Serial dilutions of the Z-medicament or DMSO (control) were then added to the plates and incubated at 37° C. for 2 h. The plates were washed with PBS containing Tween-20 (PBST), and incubated at 37° C. for 1 h with ZIKV EDIII-specific human mAb ZKA64-LALA (0.5 μg/ml) (for binding to ZIKV full-length E and EDIII proteins), or mouse sera specific to ZIKV NS2B-NS3 (for binding to NS2B-NS3 protease). The plates were washed with PBST, and incubated with horseradish peroxidase (HRP)-conjugated anti-human IgG-Fab (1:3000) or anti-mouse IgG (1:3000) antibody at 37° C. for 1 h. The 3,3′,5,5′-tetramethylbenzidine (TMB) substrate was added to the plates, and the reaction was stopped by 1 N H2SO4. Absorbance at 450 nm (A450 value) was measured by ELISA microplate reader.
Briefly, ELISA plates were coated with each protein (1 μg/ml) at 4° C. overnight, and were then incubated with blocking buffer containing 2% fat-free milk in PBST at 37° C. for 2 h. The above compounds, or DMSO control, at serial dilutions were added to the plates, and incubated at 37° C. for 2 h. After three washes using PBST, the plates were incubated at 37° C. for 2 h with ZIKV EDIII-specific human mAb ZKA64-LALA (0.5 μg/ml) (for binding to ZIKV full-length E or EDIII protein), or ZIKV NS2B-NS3-specific mouse sera (for binding to NS2B-NS3 protein). After further washes, the plates were incubated with HRP-conjugated anti-human IgG-Fab (1:3,000) or anti-mouse IgG (1:3,000) antibody at 37° C. for 1 h.

Experiment [3] relates to ZIKV human strain PRVABC59 (2015/Puerto Rico). The experiment can be described thus: Plaque reduction inhibition assay in Vero E6 cells, ZIKV PRVABC59. The format is cell-based, Zika virus (ZIKV). The procedure:
(§1) A plaque reduction inhibition assay was carried out to measure the inhibitory activity of Z-medicaments against infections of ZIKV and DENV. […] The compound-virus mixtures were then transferred to Vero E6 cells (10^5/well) and incubated at 37° C. for 1 h.

Experiment [4] has as its system ZIKV human strain PAN2016 (2016/Panama). Kind of experiment: Plaque reduction inhibition assay in Vero E6 cells, ZIKV PAN2016. The format is cell-based, Zika virus (ZIKV). The procedure:
as §1

Experiment [5] concerns ZIKV human strain PLCal_ZV (2013/Thailand). Kind of experiment: Plaque reduction inhibition assay in Vero E6 cells, ZIKV PLCal_ZV. The format is cell-based, Zika virus (ZIKV). On the procedure:
as §1

Experiment [6] concerns ZIKV human strain FLR (2015/Colombia). Kind of experiment: Plaque reduction inhibition assay in Vero E6 cells, ZIKV FLR. In kind it is cell-based, Zika virus (ZIKV). The procedure: as §1
The subject of experiment [7] is ZIKV human strain R103451 (2015/Honduras). The experiment can be described thus: Plaque reduction inhibition assay in Vero E6 cells, ZIKV R103451. The format is cell-based, Zika virus (ZIKV). The procedure:
as §1

The mark [8] stands for this setting: Zika virus, Vero C1008, Vero E6 cells, Table 1, read-out: IC50 against ZIKV strain PAN2016.
Setting [9] is: Zika virus, Vero C1008, Vero E6 cells, Table 1, read-out: IC50 against ZIKV strain PLCal_ZV.
Where [10] appears, read: Zika virus, Vero C1008, Vero E6 cells, Table 1, read-out: IC50 against ZIKV strain FLR.
The mark [11] stands for this setting: Zika virus, Vero C1008, Vero E6 cells, Table 1, read-out: IC50 against ZIKV strain R103451.

Consider `C[C@H]1[C@H]2CC[C@H]3[C@@H]4CC=C5C[C@@H](N(C)C)CC[C@]5(C)[C@H]4CC[C@]23CN1C` [Conessine, conessine], for which the “Fold of Enhancement” value in experiment [1] (gossypol + conessine) amounted to 4.44. For the same compound, the “CI (combination index)” value in experiment [1] is recorded as 0.44. In addition, the “Binding to ZIKV NS2B-NS3 protein (in words)” value (“Binding” below) in experiment [2] is on record as “bound to no ZIKV proteins tested”.

For the compound `C[C@@H]1CC[C@@]2(OC1)O[C@H]1[C@@H](O)[C@H]3[C@@H]4CC[C@H]5C[C@@H](O[C@@H]6O[C@H](CO)[C@H](O[C@@H]7O[C@H](CO)[C@@H](O)[C@H](O[C@@H]8OC[C@@H](O)[C@H](O)[C@H]8O)[C@H]7O[C@@H]7O[C@H](CO)[C@H](O)[C@H](O[C@@H]8O[C@H](CO)[C@@H](O)[C@H](O)[C@H]8O)[C@H]7O)[C@H](O)[C@H]6O)[C@H](O)C[C@]5(C)[C@H]4CC[C@]3(C)[C@H]1[C@@H]2C` [Digitonin, digitonin], the concentration for half-maximal inhibition (IC50) in experiment [3] (Zika virus, Vero C1008, Vero E6 cells, Table 1, read-out: IC50 against ZIKV strain PRVABC59) turned out to be 3.76 ± 1.12 µM; in experiment [4] (setting [8]), 4.31 µM; in experiment [5] (setting [9]) it was 3.19 ± 0.25 µM; in experiment [6] (setting [10]), 3.34 ± 0.22 µM; in experiment [7] (setting [11]) it was 4.3 ± 0.43 µM. For the same compound, in experiment [1] (gossypol + digitonin), the “Fold of Enhancement” value worked out at 3.21. For the same compound, the “CI (combination index)” value in experiment [1] was 0.60. Further, in experiment [2], the “Binding” value is listed as “bound to no ZIKV proteins tested”.

Regarding `Cc1cc2c(C(C)C)c(O)c(O)c(C=O)c2c(O)c1-c1c(C)cc2c(C(C)C)c(O)c(O)c(C=O)c2c1O` [Gossypol, gossypol], the IC50 was 4.55 ± 0.07 µM in experiment [3] (Zika virus, Vero C1008, read-out: ZIKV strains IC50, PRVABC59); 3.48 µM in experiment [4] (setting [8]); 3.78 ± 0.3 µM in experiment [4] (Zika virus, Vero C1008, read-out: ZIKV strains IC50, PAN2016); 3.79 ± 0.01 µM in experiment [1] (Zika virus, Vero C1008, read-out: IC50 Alone); 1.98 ± 0.07 µM in experiment [5] (setting [9]); 2.88 ± 0.19 µM in experiment [5] (Zika virus, Vero C1008, read-out: ZIKV strains IC50, PLCal_ZV). For the same compound, the IC50 in experiment [6] (setting [10]) was 0.21 ± 0.01 µM; in experiment [6] (Zika virus, Vero C1008, read-out: ZIKV strains IC50, FLR) it was 0.73 ± 0.07 µM; in experiment [7] (setting [11]), 2.28 ± 0.1 µM; in experiment [7] (Zika virus, Vero C1008, read-out: ZIKV strains IC50, R103451), 3.12 ± 0.38 µM.

As to `Cc1cc2c(C(C)C)c(O)c(O)c(/C=N/n3c(=O)[nH][nH]c3=O)c2c(O)c1-c1c(C)cc2c(C(C)C)c(O)c(O)c(/C=N/n3c(=O)[nH][nH]c3=O)c2c1O` [ST087010], the IC50 was determined as 2.36 ± 0.05 µM in experiment [3] (Vero E6 cells, Table 7, gossypol derivatives, read-out: ZIKV strains IC50, PRVABC59); 3.17 ± 0.18 µM in experiment [4] (Vero E6 cells, Table 7, gossypol derivatives, read-out: ZIKV strains IC50, PAN2016); 2.21 ± 0.08 µM in experiment [5] (Vero E6 cells, Table 7, gossypol derivatives, read-out: ZIKV strains IC50, PLCal_ZV); 2.76 ± 0.1 µM in experiment [6] (Vero E6 cells, Table 7, gossypol derivatives, read-out: ZIKV strains IC50, FLR); 3.6 ± 0.07 µM in experiment [7] (Vero E6 cells, Table 7, gossypol derivatives, read-out: ZIKV strains IC50, R103451). Further, the concentration for a half-maximal effect (EC50) in experiment [2] (detected with NS2B-NS3-immunized mouse sera, read-out: EC50, binding to ZIKV NS2B-NS3 protein) came to 21.9 µM.

Take `COc1cc(/C=C/C(=O)CC(=O)/C=C/c2ccc(O)c(OC)c2)ccc1O` [Curcumin, curcumin]: the “Fold of Enhancement” value in experiment [1] (gossypol + curcumin) is recorded as 3.60. In experiment [1], the “CI (combination index)” value worked out at 0.52. In addition, the “Binding” value in experiment [2] is given as “much lower binding affinity”.

Source of the values: patent publication US20220313651A1, “INHIBITORS OF ZIKA VIRUS INFECTION” (priority 2019, published 2022).
